Measurements from the supplement of paper PMC10307832.

What was measured:
Experiment in all cases: relative viability (nuclei count vs DMSO), 5 days (fraction); higher = more cells survive
A-427 = system: A-427
Summary of the method: (§1)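 One day after seeding in 1536-well plates, lung cancer cell lines were dosed by pin tool. Dosing was either single-drug or a fixed anchor-drug dose plus five library-drug doses (not always all listed) in √10 steps. After 5 days, nuclei were stained in one fix-and-stain step and counted on 4× images, and relative viability is the nuclei count of treated wells over that of vehicle wells, given as the median of duplicate plates.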

BEN = system: BEN
Summary of the method: as §1

EKVX = system: EKVX
Summary of the method: as §1

LC-2-ad = system: LC-2-ad
Summary of the method: as §1

LCLC-97TM1 = system: LCLC-97TM1
Summary of the method: as §1

LOU-NH91 = system: LOU-NH91
Summary of the method: as §1

LU99A = system: LU99A
Summary of the method: as §1

NCI-H1355 = system: NCI-H1355
Summary of the method: as §1

NCI-H1650 = system: NCI-H1650
Summary of the method: as §1

NCI-H1666 = system: NCI-H1666
Summary of the method: as §1

NCI-H1793 = system: NCI-H1793
Summary of the method: as §1

NCI-H1915 = system: NCI-H1915
Summary of the method: as §1

NCI-H1993 = system: NCI-H1993
Summary of the method: as §1

NCI-H2228 = system: NCI-H2228
Summary of the method: as §1

NCI-H2347 = system: NCI-H2347
Summary of the method: as §1

NCI-H23 = system: NCI-H23
Summary of the method: as §1

NCI-H460 = system: NCI-H460
Summary of the method: as §1

NCI-H520 = system: NCI-H520
Summary of the method: as §1

NCI-H650 = system: NCI-H650
Summary of the method: as §1

NCI-H838 = system: NCI-H838
Summary of the method: as §1

PC-3 [JPC-3] = system: PC-3 [JPC-3]
Summary of the method: as §1

RERF-LC-KJ = system: RERF-LC-KJ
Summary of the method: as §1

SW 1573 = system: SW 1573
Summary of the method: as §1

## O=c1[nH]c2ccccc2n1C1CCN(CCCC(c2ccc(F)cc2)c2ccc(F)cc2)CC1 [Pimozide] + O=C(c1cc(Cc2n[nH]c(=O)c3ccccc23)ccc1F)N1CCN(C(=O)C2CC2)CC1 [Olaparib] (partner 8 µM)
A-427; first compound 0.08 µM
  relative viability: 0.708
A-427; first compound 0.253 µM
  relative viability: 0.681
A-427; first compound 0.8 µM
  relative viability: 0.661
A-427; first compound 2.53 µM
  relative viability: 0.691
A-427; first compound 8 µM
  relative viability: 0.685
BEN; first compound 0.08 µM
  relative viability: 1.15
BEN; first compound 0.253 µM
  relative viability: 1.15
BEN; first compound 0.8 µM
  relative viability: 1.1
BEN; first compound 2.53 µM
  relative viability: 1.07
BEN; first compound 8 µM
  relative viability: 1.29
EKVX; first compound 0.253 µM
  relative viability: 0.783
EKVX; first compound 0.8 µM
  relative viability: 0.823
EKVX; first compound 2.53 µM
  relative viability: 0.854
EKVX; first compound 8 µM
  relative viability: 0.795
LC-2-ad; first compound 0.08 µM
  relative viability: 0.68
LC-2-ad; first compound 0.253 µM
  relative viability: 0.731
LC-2-ad; first compound 0.8 µM
  relative viability: 0.69
LC-2-ad; first compound 2.53 µM
  relative viability: 0.668
LC-2-ad; first compound 8 µM
  relative viability: 0.673
LCLC-97TM1; first compound 0.08 µM
  relative viability: 0.387
LCLC-97TM1; first compound 0.253 µM
  relative viability: 0.314
LCLC-97TM1; first compound 0.8 µM
  relative viability: 0.404
LCLC-97TM1; first compound 2.53 µM
  relative viability: 0.222
LCLC-97TM1; first compound 8 µM
  relative viability: 0.269
LOU-NH91; first compound 0.08 µM
  relative viability: 0.655
LOU-NH91; first compound 0.253 µM
  relative viability: 0.911
LOU-NH91; first compound 0.8 µM
  relative viability: 0.866
LOU-NH91; first compound 2.53 µM
  relative viability: 0.962
LOU-NH91; first compound 8 µM
  relative viability: 0.971
LU99A; first compound 0.08 µM
  relative viability: 0.251
LU99A; first compound 0.8 µM
  relative viability: 0.26
LU99A; first compound 2.53 µM
  relative viability: 0.297
LU99A; first compound 8 µM
  relative viability: 0.254
NCI-H1355; first compound 0.08 µM
  relative viability: 0.717
NCI-H1355; first compound 0.253 µM
  relative viability: 0.677
NCI-H1355; first compound 0.8 µM
  relative viability: 0.675
NCI-H1355; first compound 2.53 µM
  relative viability: 0.758
NCI-H1355; first compound 8 µM
  relative viability: 0.689
NCI-H1650; first compound 0.08 µM
  relative viability: 0.775
NCI-H1650; first compound 0.253 µM
  relative viability: 0.664
NCI-H1650; first compound 0.8 µM
  relative viability: 0.762
NCI-H1650; first compound 2.53 µM
  relative viability: 0.962
NCI-H1650; first compound 8 µM
  relative viability: 0.805
NCI-H1666; first compound 0.08 µM
  relative viability: 0.708
NCI-H1666; first compound 0.253 µM
  relative viability: 0.737
NCI-H1666; first compound 0.8 µM
  relative viability: 0.787
NCI-H1666; first compound 2.53 µM
  relative viability: 0.756
NCI-H1666; first compound 8 µM
  relative viability: 0.754
NCI-H1793; first compound 0.08 µM
  relative viability: 0.762
NCI-H1793; first compound 0.253 µM
  relative viability: 0.826
NCI-H1793; first compound 0.8 µM
  relative viability: 0.875
NCI-H1793; first compound 2.53 µM
  relative viability: 0.772
NCI-H1793; first compound 8 µM
  relative viability: 0.706
NCI-H1915; first compound 0.08 µM
  relative viability: 0.259
NCI-H1915; first compound 0.253 µM
  relative viability: 0.241
NCI-H1915; first compound 2.53 µM
  relative viability: 0.246
NCI-H1915; first compound 8 µM
  relative viability: 0.243
NCI-H1993; first compound 0.08 µM
  relative viability: 0.95
NCI-H1993; first compound 0.253 µM
  relative viability: 1.12
NCI-H1993; first compound 0.8 µM
  relative viability: 0.918
NCI-H1993; first compound 2.53 µM
  relative viability: 1.05
NCI-H1993; first compound 8 µM
  relative viability: 1.13
NCI-H2228; first compound 0.08 µM
  relative viability: 0.759
NCI-H2228; first compound 0.253 µM
  relative viability: 0.699
NCI-H2228; first compound 0.8 µM
  relative viability: 0.555
NCI-H2228; first compound 2.53 µM
  relative viability: 0.45
NCI-H2228; first compound 8 µM
  relative viability: 0.344
NCI-H2347; first compound 0.08 µM
  relative viability: 0.663
NCI-H2347; first compound 0.253 µM
  relative viability: 0.556
NCI-H2347; first compound 0.8 µM
  relative viability: 0.577
NCI-H2347; first compound 2.53 µM
  relative viability: 0.519
NCI-H2347; first compound 8 µM
  relative viability: 0.587
NCI-H23; first compound 0.08 µM
  relative viability: 0.293
NCI-H23; first compound 0.253 µM
  relative viability: 0.326
NCI-H23; first compound 0.8 µM
  relative viability: 0.325
NCI-H23; first compound 2.53 µM
  relative viability: 0.285
NCI-H23; first compound 8 µM
  relative viability: 0.275
NCI-H460; first compound 0.08 µM
  relative viability: 0.499
NCI-H460; first compound 0.253 µM
  relative viability: 0.48
NCI-H460; first compound 0.8 µM
  relative viability: 0.394
NCI-H460; first compound 2.53 µM
  relative viability: 0.361
NCI-H460; first compound 8 µM
  relative viability: 0.398
NCI-H520; first compound 0.08 µM
  relative viability: 0.33
NCI-H520; first compound 0.253 µM
  relative viability: 0.345
NCI-H520; first compound 0.8 µM
  relative viability: 0.266
NCI-H520; first compound 2.53 µM
  relative viability: 0.312
NCI-H520; first compound 8 µM
  relative viability: 0.276
NCI-H650; first compound 0.08 µM
  relative viability: 0.409
NCI-H650; first compound 0.253 µM
  relative viability: 0.333
NCI-H650; first compound 0.8 µM
  relative viability: 0.475
NCI-H650; first compound 2.53 µM
  relative viability: 0.404
NCI-H650; first compound 8 µM
  relative viability: 0.408
NCI-H838; first compound 0.08 µM
  relative viability: 0.772
NCI-H838; first compound 0.253 µM
  relative viability: 0.757
NCI-H838; first compound 0.8 µM
  relative viability: 0.729
NCI-H838; first compound 2.53 µM
  relative viability: 0.719
NCI-H838; first compound 8 µM
  relative viability: 0.744
PC-3 [JPC-3]; first compound 0.253 µM
  relative viability: 1.09
PC-3 [JPC-3]; first compound 0.8 µM
  relative viability: 1.1
PC-3 [JPC-3]; first compound 2.53 µM
  relative viability: 1.08
PC-3 [JPC-3]; first compound 8 µM
  relative viability: 1
RERF-LC-KJ; first compound 0.08 µM
  relative viability: 0.873
RERF-LC-KJ; first compound 0.253 µM
  relative viability: 0.823
RERF-LC-KJ; first compound 0.8 µM
  relative viability: 0.838
RERF-LC-KJ; first compound 2.53 µM
  relative viability: 0.659
RERF-LC-KJ; first compound 8 µM
  relative viability: 0.648
SW 1573; first compound 0.08 µM
  relative viability: 0.457
SW 1573; first compound 0.253 µM
  relative viability: 0.442
SW 1573; first compound 0.8 µM
  relative viability: 0.448
SW 1573; first compound 2.53 µM
  relative viability: 0.38
SW 1573; first compound 8 µM
  relative viability: 0.391
